Experimental findings from ChEMBL document CHEMBL3400047, “Synthesis and binding properties of new long-chain 4-substituted piperazine derivatives as 5-HT₁A and 5-HT₇ receptor ligands” (Bioorg Med Chem Lett, 2015) are described below.

Assay [1] has as its target T1, 5-hydroxytryptamine receptor 7 (Homo sapiens, UniProt P34969). In words: Displacement of [3H]-8-OH-DPAT from human 5-HT7 receptor expressed in CHOK1 cells after 30 mins by liquid scintillation counting analysis. Format: cell-based, CHO-K1.
For assay [2], the target named is T2, 5-hydroxytryptamine receptor 1A (Homo sapiens, UniProt P08908).
T2 sequence (P08908 whole entry): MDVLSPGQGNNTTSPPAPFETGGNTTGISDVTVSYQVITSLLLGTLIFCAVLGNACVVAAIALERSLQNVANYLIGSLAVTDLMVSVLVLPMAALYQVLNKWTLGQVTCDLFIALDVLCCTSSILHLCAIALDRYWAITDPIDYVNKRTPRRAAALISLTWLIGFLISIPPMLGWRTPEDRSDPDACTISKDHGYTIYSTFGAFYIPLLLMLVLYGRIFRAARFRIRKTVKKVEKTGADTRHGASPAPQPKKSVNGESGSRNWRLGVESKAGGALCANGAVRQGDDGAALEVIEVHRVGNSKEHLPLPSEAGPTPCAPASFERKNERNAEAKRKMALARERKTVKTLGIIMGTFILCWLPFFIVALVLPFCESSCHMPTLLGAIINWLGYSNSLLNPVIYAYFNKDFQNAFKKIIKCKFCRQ
In words: Displacement of [3H]-5-HT from human 5-HT1A receptor expressed in CHOK1 cells after 30 mins by liquid scintillation counting analysis. Format: cell-based, CHO-K1. On the technique in general: Displacement assays read how much labelled ligand stays bound in the presence of the test substance.

Assay [3] is filed under the species Homo sapiens. In words: Selectivity ratio of Ki for human 5-HT1A receptor to Ki for human 5-HT7 receptor.
For assay [4], the species on record is Homo sapiens. In words: Selectivity ratio of Ki for human 5-HT7 receptor to Ki for human 5-HT1A receptor.
The target in assay [5] is T3, 5-hydroxytryptamine receptor 1A (Rattus norvegicus, UniProt P19327).
T3 sequence (P19327 whole entry): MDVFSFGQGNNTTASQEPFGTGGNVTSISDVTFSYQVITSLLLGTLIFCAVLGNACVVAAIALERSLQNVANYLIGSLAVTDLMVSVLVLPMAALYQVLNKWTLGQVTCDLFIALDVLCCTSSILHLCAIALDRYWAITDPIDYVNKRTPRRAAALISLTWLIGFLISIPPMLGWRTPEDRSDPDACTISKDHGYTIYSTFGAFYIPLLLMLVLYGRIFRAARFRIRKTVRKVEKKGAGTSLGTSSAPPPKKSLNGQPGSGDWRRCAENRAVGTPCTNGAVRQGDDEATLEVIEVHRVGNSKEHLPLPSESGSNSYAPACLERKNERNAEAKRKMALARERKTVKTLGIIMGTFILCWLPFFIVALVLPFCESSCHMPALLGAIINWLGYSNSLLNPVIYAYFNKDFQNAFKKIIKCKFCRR
In words: Binding affinity to rat hippocampus 5-HT1A receptor.

The target in assay [6] is 5-hydroxytryptamine receptor 1B (Homo sapiens) (UniProt P28222). In words: Antagonist activity at human […] receptor expressed in HEK293 cells assessed as inhibition of 5-CT-induced cAMP production at 1 uM after 30 mins by TR-FRET assay. The format is functional, cell-based. For orientation: Cyclic AMP is a second messenger, typically raised through Gs and lowered through Gi signalling.
5-hydroxytryptamine receptor 1B (Homo sapiens), sequence (P28222 whole entry): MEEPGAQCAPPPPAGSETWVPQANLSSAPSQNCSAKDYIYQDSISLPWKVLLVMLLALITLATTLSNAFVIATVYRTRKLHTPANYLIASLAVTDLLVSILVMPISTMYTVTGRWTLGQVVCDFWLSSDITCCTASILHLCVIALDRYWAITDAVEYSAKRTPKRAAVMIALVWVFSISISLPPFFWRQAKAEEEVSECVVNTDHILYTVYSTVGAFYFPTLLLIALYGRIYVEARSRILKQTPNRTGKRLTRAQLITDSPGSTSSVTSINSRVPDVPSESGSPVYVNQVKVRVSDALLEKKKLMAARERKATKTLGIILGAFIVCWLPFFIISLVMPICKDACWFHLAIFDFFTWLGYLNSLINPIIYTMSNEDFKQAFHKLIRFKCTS

The target in assay [7] is T1, 5-hydroxytryptamine receptor 7. In words: Displacement of [3H]-8-OH-DPAT from human 5-HT7 receptor expressed in CHOK1 cells at 10^-5 M after 30 mins by liquid scintillation counting analysis. Format: cell-based. To be noted: CHO-K1.

T1 sequence (P34969 whole entry): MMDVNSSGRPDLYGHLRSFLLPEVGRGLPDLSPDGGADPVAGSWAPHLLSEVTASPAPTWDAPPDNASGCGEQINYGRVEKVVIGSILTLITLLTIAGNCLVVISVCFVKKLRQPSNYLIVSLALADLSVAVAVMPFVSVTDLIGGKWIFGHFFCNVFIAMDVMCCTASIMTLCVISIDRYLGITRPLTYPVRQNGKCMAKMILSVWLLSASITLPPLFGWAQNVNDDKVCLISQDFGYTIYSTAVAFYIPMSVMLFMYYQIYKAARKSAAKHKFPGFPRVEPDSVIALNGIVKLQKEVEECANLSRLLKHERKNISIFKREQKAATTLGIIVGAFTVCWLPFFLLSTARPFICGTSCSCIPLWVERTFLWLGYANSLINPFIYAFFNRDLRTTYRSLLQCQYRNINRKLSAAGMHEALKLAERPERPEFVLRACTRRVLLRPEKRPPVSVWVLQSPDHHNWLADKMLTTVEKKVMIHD

In general, Ki refers to the equilibrium dissociation constant of an inhibitor or competing ligand from its target. Take `O=c1c2ccccc2ncn1CCCCCN1CCN(c2cccc(Cl)c2)CC1`: the inhibition constant (Ki) in assay [1] is 35.8 nM; in assay [2], 6.28 nM.

As to `Cc1sc2nc(CCCCCN3CCN(c4cccc(Cl)c4)CC3)[nH]c(=O)c2c1C`, the Ki in assay [1] was found to be 68.4 nM; in assay [2], 114 nM. Further, the Ratio Ki in assay [3] was determined as 2.

For the molecule `O=c1[nH]c(CCCCCN2CCN(c3ccc(Cl)cc3)CC2)nc2ccccc12`, the Ki was determined as 101 nM in assay [1] and 116 nM in assay [2].

`O=c1[nH]c(CCCCN2CCN(c3cccc(Cl)c3)CC2)nc2ccccc12`: the Ki in assay [1] is 21.2 nM; in assay [2], 2.96 nM.

With `Cc1sc2ncn(CCCCCN3CCN(c4ccccc4)CC3)c(=O)c2c1C`, the Ki came out at 143 nM in assay [1] and 16.1 nM in assay [2].

On to `NC(=O)c1ccccc1NC(=O)CCCCN1CCN(c2cccc(Cl)c2)CC1`, for which the inhibition constant Ki amounted to 168 nM in assay [1] and 39.6 nM in assay [2].

As to `O=c1[nH]c(CCCCN2CCN(c3ccccc3)CC2)nc2ccccc12`, the Ki in assay [1] is 145 nM; in assay [2] it was 36.6 nM.

On to `O=c1[nH]c(CCCCCN2CCN(c3ccccc3)CC2)nc2ccccc12`, for which the values for the Ki in assay [1] and in assay [2] were 228 nM and 43.5 nM, respectively.

In the case of `Cc1sc2ncn(CCCCCN3CCN(c4cccc(Cl)c4)CC3)c(=O)c2c1C`, the Ki in assay [1] turned out to be 88.5 nM; in assay [2], 3.23 nM. Further, the Ratio Ki in assay [4] stood at 27.

Regarding `O=c1c2ccccc2ncn1CCCCN1CCN(c2cccc(Cl)c2)CC1`, the inhibitory constant (Ki) was 502 nM in assay [1], 50 nM in assay [5] and 5.3 nM in assay [2].

As to `Cc1sc2nc(CCCCCN3CCC(Cc4ccccc4)CC3)[nH]c(=O)c2c1C`, the inhibitory constant (Ki) was determined as 185 nM in assay [1] and 148 nM in assay [2].

As a reminder, the inhibition is the relative decrease from the control value, in per cent. For the molecule `CCOc1ccccc1N1CCN(CCCCCn2cnc3sc(C)c(C)c3c2=O)CC1`, the figures for the inhibition constant Ki in assay [1] and in assay [2] were 2.99 nM and 1.03 nM, respectively. Besides, in assay [6], the inhibition turned out to be 38%.

For the molecule `Cc1sc2ncn(CCCCCN3CCN(c4ccc(Cl)cc4)CC3)c(=O)c2c1C`, the inhibition constant (Ki) amounted to 213 nM in assay [1] and 26.4 nM in assay [2].

On to `Cc1sc2nc(CCCCCN3CCN(c4ccc(Cl)cc4)CC3)[nH]c(=O)c2c1C`, for which the inhibitory constant (Ki) was 1460 nM in assay [1] and 53.9 nM in assay [2].

`O=c1c2ccccc2ncn1CCCCCN1CCN(c2ccc(Cl)cc2)CC1`: the Ki was 12.9 nM in assay [1] and 51.5 nM in assay [2].

Take `Cc1sc2nc(CCCCN3CCN(c4ccccc4)CC3)[nH]c(=O)c2c1C`: the Ki turned out to be 357 nM in assay [1] and 37.4 nM in assay [2]. Also, in assay [4], the Ratio Ki is 10.

Regarding `O=c1c2ccccc2ncn1CCCCCN1CCN(Cc2ccccc2)CC1`, the inhibitory constant (Ki) in assay [1] was 1080 nM; in assay [2] it was 268 nM.

With `Cc1sc2nc(CCCCN3CCC(Cc4ccccc4)CC3)[nH]c(=O)c2c1C`, in assay [7], the inhibition was under 50%.

In the case of `O=c1c2ccccc2ncn1CCCCCN1CCN(c2ccccc2)CC1`, the inhibition constant (Ki) in assay [1] was determined as 307 nM; in assay [2] it was 28.9 nM.

Take `Cc1sc2nc(CCCCCN3CCN(c4ccccc4)CC3)[nH]c(=O)c2c1C`: the Ki in assay [1] was 30.1 nM; in assay [2] it was 15.2 nM.

Regarding `O=c1[nH]c(CCCCN2CCN(c3ccc(Cl)cc3)CC2)nc2ccccc12`, the inhibitory constant (Ki) in assay [1] stood at 1140 nM; in assay [2], 75.3 nM.

In the case of `CC1CCN(CC[C@H]2CCCN2S(=O)(=O)c2cccc(O)c2)CC1`, in assay [6], the inhibition is 90%.

Consider `Cc1sc2ncn(CCCCCN3CCN(Cc4ccccc4)CC3)c(=O)c2c1C`, for which the inhibition constant Ki in assay [1] stood at 1650 nM; in assay [2], 211 nM.

Take `O=c1[nH]c(CCCCCN2CCN(c3cccc(Cl)c3)CC2)nc2ccccc12`: the Ki in assay [1] was 11.9 nM; in assay [2], 7.33 nM.

`CCOc1ccccc1N1CCN(CCCCCn2cnc3ccccc3c2=O)CC1`: the Ki in assay [1] was 6.88 nM; in assay [2] it was 1.04 nM. Moreover, the inhibition in assay [6] worked out at 42%.

Molecule `Cc1sc2nc(CCCCN3CCN(Cc4ccccc4)CC3)[nH]c(=O)c2c1C` had an inhibition in assay [7] of under 50%.

Consider `Cc1sc2nc(CCCCCN3CCN(Cc4ccccc4)CC3)[nH]c(=O)c2c1C`, for which the inhibitory constant (Ki) in assay [1] amounted to 147 nM; in assay [2], 363 nM.
